Measurements reported in article PMC8224775, “Five Tetramic Acid Derivatives Isolated from the Iranian Fungus Colpoma quercinum CCTU A372” (Biomolecules, 2021).
Where two headings read alike, the source gives them in different places.

Assays:
Assay in all cases: 5-day MTT cytotoxicity assay
[1] = test system: human breast adenocarcinoma MCF-7; format: cell-based; settings: MCF-7, 5-day MTT assay, read-out: IC50
Description: (§1) Cytotoxicity of compounds 1‒5 was initially determined against two cancer cell lines (mouse fibroblasts L-929 and human endocervical adenocarcinoma KB-3.1) by using a 5-day MTT assay according to an established procedure.
(§2) In 96-well flat-bottom microtiter plates, cell lines with serial dilution of the test compounds (final range: 37 to 0.6 × 10^−3 µg/mL) were incubated for five days. After five days, the cells were dyed using 3-(4,5-dimethyl-2-thiazolyl)-2,5-diphenyl-2H-tetrazolium bromide (MTT), which is only converted to its purple formazan derivative by living cells. The half-maximum inhibitory concentration (IC50 in µM) was calculated via the colorimetric method in a microplate reader using absorption at 595 nm. In addition, when an inhibition with an IC50 < 50 µM was observed, other cell lines were subjected to the test compounds to evaluate their further cytotoxicity: PC-3 (human prostate adenocarcinoma), SK-OV-3 (human ovary adenocarcinoma), MCF-7 (human breast adenocarcinoma), A-431 (human squamous carcinoma), and A549 (human lung carcinoma). A detailed procedure, including the colorimetric method to determine the cell viability, can be found in the SI.
(§3) Protocol: Cytotoxicity Assay
(§4) The assay was co nducted in 9 6-well flat -botto m microtiter plates using the parameters summarised in T able S2 and as described in [S2]. Cell l ines L-929 and KB-3.1 were incubated at 37 °C under 10 % CO2 in Gibco™ DMEM medium (T her mo Fisher Scientific, Waltham, M A, USA) supplemented with 10 % FBS. A microtiter plate was filled wit h 120 μ L o f this suspensio n (50,000/mL) in each well. Seperatel y, a nother microti ter plate wa s filled wit h 100 μL of gro wth medium in each well. Then, 50 μ L of the test compound solutions (1 mg/mL) were given to wells of the first column in two replicates (one compound per row). Cells without additives and MeOH were used as nega tive controls. Starting from the first column, 50 μ L of the solutions were gradually transferred to the next column, the contents thoroughly mixed, and 50 μL transferred to the following column. This created a serial dilution of the test compounds ranging from 333 μ g/mL to 1.9×10-3 μg/ mL. T he re mai ni ng 50 μ L after column twelve were discarded. From this microtiter plate, 60 μ L of the solutions fro m 111 μ g/mL to 1.9×10-3 μg/mL we r e give n to t he firs t p late co ntai ni ng 1 2 0 μ L of the cell suspensions (i.e. the highest co ncentration 333 μ g/ mL wa s no t used). T his resul ted in fi nal compo und concentratio ns rangi ng fro m 37 μ g/mL to 0.6×10-3 μg/ mL. After 5 days o f incubatio n under the aforementioned incubatio n conditions, the half maximu m inhibitory co ncentrations (IC50) were deter mined using a colorimetric tetrazolium d ye MT T assa y [S3]. For this, 20 μ L of a 5 mg/mL solution of 3-(4,5-dimethyl-2 -thiazolyl) -2,5-diphenyl-2H-tetrazolium br omide (MTT) were added to each well and incubated for two hours at 37 °C. T hen, the microtiter plate was ce ntrifuged (3,000 rpm, 5 min) and the supernatant removed by holding the plate upside-down and gentle shaking. Afterwards, the wells were washed using 100 μ L of phosphate buffered saline (PBS). T he plate was a gain ce ntrifuged a nd the supernata nt re mo ved as described before.
(§5) T hen, 1 0 0 μ L of an isopropanol:HCl solution (1L isopropanol+4 mL HCl 37 % w/v) were added to the wells. After incubating for 10 min at ambient temperature, the absorption of the wells at 595 nm was measured with an Infinite® 200 Pro microplate reader (TECAN, Männedorf, Schweiz). The absorption values of the cells without additives were averaged and set to 100 % cell viability. Then, the means of absorption of the two compound replicates were set in relation to the blank media. T hese percentage values were plotted against the concentratio n range (37 μ g/mL to 0.6×10−3 μg/ mL). T he IC50 value was r ead fro m the plot (in μ g/ mL) a nd the uni ts conversed […]
to μM. […]

[2] = test system: human lung carcinoma A-549; format: cell-based; settings: A549, 120 h, A-549, 5-day MTT assay, read-out: IC50
Description: as §1, §2, §3, §4, §5
to μM. […]

[3] = test system: human prostate cancer PC-3; format: cell-based; settings: 120 h, PC-3, 5-day MTT assay, read-out: IC50
Description: as §1, §2, §3, §4, §5
to μM. […]

[4] = test system: squamous cell carcinoma A-431; format: cell-based, human; settings: A-431, 5-day MTT assay, read-out: IC50
Description: as §1, §2, §3, §4, §5
to μM. […]

[5] = test system: ovarian carcinoma SK-OV-3; format: cell-based, human; settings: SK-OV-3, 5-day MTT assay, read-out: IC50
Description: as §1, §2, §3, §4, §5
to μM. […]

Structure (SMILES): CCC(C(=O)O)C1C(C)=CC2CC(C)CCC2C1(C)C(O)=C1C(=O)C(C)N(C)C1=O (centres unmarked) [compound 2, Colposetin B]
- IC50 ([1]; Homo sapiens, MCF7, 120 h): 6.2 to 8.1 µM
- IC50 [1]: 7.9 µM
- IC50 [2]: 16.5 µM
- IC50 [3]: 17.9 µM
- IC50 [4]: 6.2 µM
- IC50 ([4]; Homo sapiens, A-431, 120 h): 6.2 to 8.1 µM
- IC50 ([5]; Homo sapiens, SK-OV-3, 120 h): 6.2 to 8.1 µM
- IC50 [5]: 8.1 µM
